Reference: patent publication US9650339B2, “Inhibitors of histone demethylases” (Gilead Sciences, Inc., priority 2013, dated 2017)

Tests used:
KDM3B (JMJD1B) = target: T1, KDM3B (JMJD1B) (Homo sapiens, UniProt Q7LBC6); assay: Histone lysine demethylase AlphaLISA assay, KDM3B; type: biochemical; settings: read-out: KDM3B HDME Inhibition IC50
T1 construct: 842-1761; host or cells: Bac (baculovirus system)
T1 sequence (Q7LBC6 842-1761): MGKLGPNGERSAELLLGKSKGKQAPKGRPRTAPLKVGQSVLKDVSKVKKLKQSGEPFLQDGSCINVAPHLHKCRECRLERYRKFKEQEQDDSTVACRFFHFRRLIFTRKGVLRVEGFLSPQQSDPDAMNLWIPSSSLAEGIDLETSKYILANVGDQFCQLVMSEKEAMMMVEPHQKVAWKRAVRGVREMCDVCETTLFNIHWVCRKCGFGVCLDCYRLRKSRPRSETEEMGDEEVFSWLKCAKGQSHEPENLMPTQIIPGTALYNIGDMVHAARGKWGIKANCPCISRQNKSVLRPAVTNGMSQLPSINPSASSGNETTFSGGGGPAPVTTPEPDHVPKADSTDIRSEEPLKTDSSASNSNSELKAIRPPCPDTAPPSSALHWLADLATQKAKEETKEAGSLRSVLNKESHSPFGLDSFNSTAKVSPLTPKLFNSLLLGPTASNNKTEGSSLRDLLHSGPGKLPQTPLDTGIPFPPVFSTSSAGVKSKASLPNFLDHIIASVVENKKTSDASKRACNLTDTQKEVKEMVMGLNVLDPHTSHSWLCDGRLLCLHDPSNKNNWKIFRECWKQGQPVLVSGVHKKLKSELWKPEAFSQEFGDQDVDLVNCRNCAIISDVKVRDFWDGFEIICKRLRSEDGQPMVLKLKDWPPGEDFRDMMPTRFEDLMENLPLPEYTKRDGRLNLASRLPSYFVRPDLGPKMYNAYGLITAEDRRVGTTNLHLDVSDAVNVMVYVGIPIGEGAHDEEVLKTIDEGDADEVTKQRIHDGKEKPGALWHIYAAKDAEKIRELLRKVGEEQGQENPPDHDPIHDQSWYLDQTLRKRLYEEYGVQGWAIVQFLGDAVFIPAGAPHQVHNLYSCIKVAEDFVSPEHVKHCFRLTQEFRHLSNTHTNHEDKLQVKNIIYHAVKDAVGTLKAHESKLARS
Protocol: (§1) Assays are performed analogously to the protocol described by PerkinElmer (Roy et al. PerkinElmer Technical Note: AlphaLISA #12, April 2011)
(§2) Enzymes are dissolved in enzyme buffer and incubated for 10 min before being added to 3% DMSO solutions of compounds in enzyme buffer. Incubated for another 10 minutes, before substrate solution is added and the reaction mixture is incubated at room temperature. 10 μL acceptor beads, suspended in Epigenetic Buffer (Perkin Elmer AL008) from stock, are added and the suspension is incubated in the dark at room temperature, before a suspension of streptavidin donor beads (Perkin Elmer 6760002) in Epigenetic Buffer is added. After incubation at room temperature in the dark the plates are read. […]
(§3) BK9M2: Biotin-ARTKQTAR(KMe2)STGGKAPRKQ-NH2 (AnaSpec 64359) […]
(§4) Substrate Solution: Substrate, 25 μM L-Asc, and 10 μM α-KG in Buffer A.

KDM3A (JMJD1A) = target: T2, KDM3A (JMJD1A) (Homo sapiens, UniProt Q9Y4C1); assay: Histone lysine demethylase AlphaLISA assay, KDM3A; type: biochemical; settings: read-out: KDM3 A HDME Inhibition IC50
T2 construct: 2-end; purchased BPS Bioscience, US; host or cells: Bac (baculovirus system)
T2 sequence (Q9Y4C1 2-1321 limits assumed): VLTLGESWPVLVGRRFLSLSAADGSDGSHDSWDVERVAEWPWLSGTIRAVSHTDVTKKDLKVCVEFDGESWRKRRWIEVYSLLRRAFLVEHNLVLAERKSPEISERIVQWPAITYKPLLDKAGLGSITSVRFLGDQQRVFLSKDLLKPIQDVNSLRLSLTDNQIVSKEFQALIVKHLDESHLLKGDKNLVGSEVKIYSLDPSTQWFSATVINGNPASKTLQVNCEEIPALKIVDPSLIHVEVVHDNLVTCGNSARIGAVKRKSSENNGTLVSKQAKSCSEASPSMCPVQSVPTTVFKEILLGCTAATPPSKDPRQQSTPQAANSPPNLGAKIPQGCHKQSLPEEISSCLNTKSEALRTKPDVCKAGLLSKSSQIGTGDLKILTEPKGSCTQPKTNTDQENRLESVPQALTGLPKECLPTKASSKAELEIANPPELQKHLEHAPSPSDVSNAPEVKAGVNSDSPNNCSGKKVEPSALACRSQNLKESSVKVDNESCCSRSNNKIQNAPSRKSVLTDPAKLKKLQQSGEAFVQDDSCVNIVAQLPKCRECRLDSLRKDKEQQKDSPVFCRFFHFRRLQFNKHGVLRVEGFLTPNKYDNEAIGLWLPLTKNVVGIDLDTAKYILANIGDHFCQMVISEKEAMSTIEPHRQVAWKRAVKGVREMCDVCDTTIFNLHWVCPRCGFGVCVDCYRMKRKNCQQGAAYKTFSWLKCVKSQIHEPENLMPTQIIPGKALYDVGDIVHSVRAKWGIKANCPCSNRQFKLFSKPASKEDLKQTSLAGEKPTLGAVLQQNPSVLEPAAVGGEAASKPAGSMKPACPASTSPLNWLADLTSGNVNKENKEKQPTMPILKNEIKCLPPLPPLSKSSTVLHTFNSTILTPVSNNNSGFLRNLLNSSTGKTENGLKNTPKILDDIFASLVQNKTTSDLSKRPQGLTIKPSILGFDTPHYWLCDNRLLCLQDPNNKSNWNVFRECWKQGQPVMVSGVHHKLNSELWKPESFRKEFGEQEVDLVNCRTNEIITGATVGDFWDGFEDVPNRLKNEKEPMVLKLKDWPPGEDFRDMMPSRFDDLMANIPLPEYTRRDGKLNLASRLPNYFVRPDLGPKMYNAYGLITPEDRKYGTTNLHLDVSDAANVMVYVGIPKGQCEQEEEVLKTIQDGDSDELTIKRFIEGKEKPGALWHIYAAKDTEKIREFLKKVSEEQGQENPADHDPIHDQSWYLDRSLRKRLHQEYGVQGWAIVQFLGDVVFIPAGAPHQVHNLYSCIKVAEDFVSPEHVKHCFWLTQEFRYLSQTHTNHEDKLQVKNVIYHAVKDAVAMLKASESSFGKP
Protocol: as §1, §2, §3, §4

SMILES	IC50 (KDM3B (JMJD1B)) [nM]	IC50 (KDM3A (JMJD1A)) [nM]
CCN(CC)CCCCNCc1cc(CNC(=O)C(F)(F)F)ccn1 [Compound 1, N-{[2-({[4-(diethylamino)butyl]-amino}methyl)pyridin-4-yl]methyl}-2,2,2-trifluoroacetamide]	> 2500	> 2500
CN(C)CCCNCc1cc(CN)ccn1 [Compound 3, [2-({[3-(dimethylamino)propyl]-amino}methyl)pyridin-4-yl]methanamine]	> 2500	
CCN(CCN(C)C)C(=O)CNCc1cc(CN)ccn1 [Compound 4, 2-({[4-(aminomethyl)pyridin-2-yl]methyl}amino)-N-[2-(dimethylamino)ethyl]-N-ethylacetamide]	> 2500	> 2500
CCN(CC)CCCCNCc1cc(CN)ccn1 [Compound 5, [2-({[4-(diethylamino)butyl]-amino}methyl)pyridin-4-yl]methanamine]	> 2500	> 2500
CCN(CC)CCCCN(Cc1cc(CNC(=O)C(F)(F)F)ccn1)C(=O)C(F)(F)F [Compound 6, N-[4-(diethylamino)butyl]-- 2,2,2-trifluoro-N-({4-[(trifluoroacetamido)-methyl]pyridin-2-yl}methyl)acetamide]	> 2500	> 2500
NCc1ccnc(CNCCCCN2CCC2)c1 [Compound 7, [2-({[4-(azetidin-1-yl)butyl]amino}methyl)-pyridin-4-yl]-methanamine]	> 2500	> 2500
CN(C)CCCCCNCc1cc(CN)ccn1 [Compound 8, [2-({[5-(dimethylamino)pentyl]-amino}methyl)pyridin-4-yl]methanamine]	> 2500	> 2500
COc1ccccc1CN1CCC(NC(=O)CNCc2cc(CN)ccn2)CC1 [Compound 9, 2-({[4-(aminomethyl)pyridin-2-yl]methyl}amino)-N-{1-[(2-methoxyphenyl)methyl]-piperidin-4-yl}acetamide]	> 2500	> 2500
CN(C)CCCCNCc1cc(CNC2CC2)ccn1 [Compound 10, N-{[2-({[4-(dimethylamino)butyl]-amino}methyl)pyridin-4-yl]methyl}-cyclopropanamine]	> 2500	> 2500
CC1CCCCN1CCCNCc1cc(CNC2CC2)ccn1 (stereo not shown) [Compound 11, N-{[2-({[3-(2-methylpiperidin-1-yl)propyl]amino}methyl)-pyridin-4-yl]methyl}-cyclopropanamine]	> 2500	> 2500
CCCNCc1cc(CNC2CC2)ccn1 [Compound 12, N-({2-[(propylamino)methyl]-pyridin-4-yl}methyl)-cyclopropanamine]	> 2500	> 2500
CN(C)C(=O)CNCc1cc(CNCC#N)ccn1 [Compound 13, 2-{[(4-{[(cyanomethyl)amino]-methyl}pyridin-2-yl)methyl]amino}-N,N-dimethylacetamide]	> 2500	
CN(C)C(=O)CNCc1cc(CNCCF)ccn1 [Compound 14, 2-{[(4-{[(2-fluoroethyl)amino]-methyl}pyridin-2-yl)methyl]amino}-N,N-dimethylacetamide]	> 2500	> 2500
CN(C)CCNCc1ccnc(CNCC(=O)N(C)C)c1 [Compound 15, 2-({[4-({[2-(dimethylamino)ethyl]-amino}methyl)pyridin-2-yl]methyl}amino)-N,N-dimethylacetamide]	> 2500	> 2500
c1ccc(CN2CCC[C@H]2CNCc2cc(CNCC3CC3)ccn2)cc1 [Compound 16, {[(2S)-1-benzylpyrrolidin-2-yl]methyl}[(4-{[(cyclopropylmethyl)-amino]methyl}pyridin-2-yl)methyl]amine]	> 2500	> 2500
CNCc1ccnc(CNCCCN(C)Cc2ccccc2)c1 [Compound 17, benzyl(methyl){3-[({4-[(methylamino)methyl]-pyridin-2-yl)methyl)-amino]propyl}-amine]	> 2500	> 2500
CN(C)CCNCc1cc(CNC(C#N)C2CC2)ccn1 (stereo not shown) [Compound 21, 2-cyclopropyl-2-({[2-({[2-(dimethylamino)ethyl]-amino}methyl)pyridin-4-yl]methyl}amino)-acetonitrile]	> 2500	> 2500
CC(C#N)NCc1ccnc(CNCCCN(C)C)c1 (stereo not shown) [Compound 22, 2-({[2-({[3-(dimethylamino)propyl]-amino}methyl)pyridin-4-yl]methyl}amino)-propanenitrile]	> 2500	> 2500
N#CCNCc1ccnc(CNCCCCN(Cc2ccccc2)C2CC2)c1 [Compound 23, 2-[({2-[({4-[benzyl(cyclopropyl)-amino]butyl}amino)-methyl]pyridin-4-yl}methyl)amino]-acetonitrile]	> 2500	> 2500
CNC(C#N)c1ccnc(CNCCCN(C)C)c1 (stereo not shown) [Compound 24, 2-[2-({[3-(dimethylamino)propyl]-amino}methyl)pyridin-4-yl]-2-(methylamino)-acetonitrile]	> 2500	> 2500
CCN(CCN(C)C)C(=O)CNCc1cc(CNC(=O)C(F)(F)F)ccn1 [Compound 25, N-[(2-{[({[2-(dimethylamino)ethyl]-(ethyl)carbamoyl}-methyl)amino]methyl}-pyrtdin-4-yl)methyl]-2,2,2-trifluoroacetamide]	> 2500	> 2500
CN(C)C(=O)CNCc1cc(/C=N\C2CC2)ccn1 [Compound 33]	> 2500	
CN(CCCNCc1cc(/C=N/C2CC2)ccn1)Cc1ccccc1 [Compound 41, N-({2-[({3-[benzyl(methyl)amino]-propyl}amino)methyl]-pyridin-4-yl}methylidene)-cyclopropanamine]	> 2500	
CCN(CCN(C)C)C(=O)CNCc1cc(/C=N/CCC2CCCCC2)ccn1 [Compound 63, 2-[({4-[[(2-cydohexylethyl)-imino]methyl]pyridin-2-yl}methyl)amino]-N-[2-(dimethylamino)-ethyl]-N-ethylacetamide]	> 2500	
